Literature values, collected in patent US7601526B2 (priority 2004, dated 2009).

Tested on: F. tularensis

SMILES | type of antibacterial action against F. tularensis
[H]/N=C(/N)N[C@H]1[C@H](O)[C@@H](O)[C@H](O[C@@H]2O[C@@H](C)[C@](O)(C=O)[C@H]2O[C@@H]2O[C@@H](CO)[C@H](O)[C@@H](O)[C@@H]2NC)[C@@H](N/C(N)=N\[H])[C@@H]1O [Streptomycin] | bactericidal
O=C(N[C@H](CO)[C@H](O)c1ccc([N+](=O)[O-])cc1)C(Cl)Cl [chloramphenicol] | bacteriostatic
